Experimental data published in US20200079758A1, “[4-(PHENYLSULFONYL)PIPERAZIN-1-YL](1H-1,2,3-TRIAZOL-4-YL)METHANONES” (priority 2016, published 2020).

Molecular target: T1, recombinant human AKR1C3 (Homo sapiens, UniProt P42330)
T1 construct: GST (cleaved yes); made in house; host or cells: E. coli
T1 sequence (P42330 1-323): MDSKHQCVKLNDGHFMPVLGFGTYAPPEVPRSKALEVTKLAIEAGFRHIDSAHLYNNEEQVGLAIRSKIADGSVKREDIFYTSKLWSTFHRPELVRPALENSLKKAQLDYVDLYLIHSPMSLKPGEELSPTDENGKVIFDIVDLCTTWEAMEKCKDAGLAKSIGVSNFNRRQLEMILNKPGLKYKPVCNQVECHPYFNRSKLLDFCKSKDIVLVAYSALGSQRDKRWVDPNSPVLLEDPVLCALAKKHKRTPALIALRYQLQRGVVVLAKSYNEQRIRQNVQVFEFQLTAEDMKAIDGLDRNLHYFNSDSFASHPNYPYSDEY
Experiment: AKR1C3-inhibitory activity assay (generation of Coumberol from Coumberone)
Assay type: biochemical
Settings: Coumberone 0.3 μM, NADPH 10 μM, 22° C., typically 90 min, average or median values
Method: The AKR1C3-inhibitory activity of the substances of the present invention was measured in the AKR1C3 assay described in the paragraphs below.
Essentially, the enzyme activity is measured by quantification of the generation of Coumberol from Coumberone (Halim et al. J. AM. CHEM. SOC. 2008, 130:14123-14128 and Yee et al. Proc. Natl. Acad. Sci. USA 2006, 103:13304-13309). In this test, the increase of the highly fluorescent Coumberol by NADPH- (nicotinamide adenine dinucleotide phosphate)-dependent reduction of the non-fluorescent Coumberone by AKR1C3 was determined.
The enzyme used was recombinant human AKR1C3 (Aldo-keto reductase family 1 member C3; GenBank Accession No. NM_003739). This was expressed in E. coli as GST (glutathione S transferase) fusion protein and purified by glutathione Sepharose affinity chromatography. The GST was removed by digestion with thrombin and subsequent size exclusion chromatography (Dufort, I., Rheault, P., Huang, X F., Soucy, P., and Luu-The, V., Endocrinology 140, 568-574 (1999)).
For the assay, 50 nl of a 100-fold concentrated solution of the test substance in DMSO were pipetted into a black low-volume 384-well microtiter plate (Greiner Bio-One, Frickenhausen, Germany), 2.5 μl of a solution of AKR1C3 in assay buffer [50 mM potassium phosphate buffer pH 7, 1 mM DTT, 0.0022% (w/v) Pluronic F-127, 0.01% BSA (w/v) and protease inhibitor cocktail (Complete, EDTA-free Protease Inhibitor Cocktail from Roche)] were added and the mixture was incubated for 15 min to allow pre-binding of the substances to the enzyme prior to the enzyme reaction. The enzyme reaction was then started by addition of 2.5 μl of a solution of NADPH (20 μM→final concentration in 5 μl of assay volume is 10 μM) and Coumberone (0.6 μM→final concentration in 5 μl of assay volume is 0.3 μM) in assay buffer, and the resulting mixture was incubated at 22° C. for the reaction time of typically 90 min. The concentration of the AKR1C3 and the reaction time was adapted to the respective activity of the enzyme preparation and adjusted such that the assay was carried out in the linear range. Typical AKR1C3 concentrations were in the region of 1 nM. The reaction was stopped by addition of 2.5 μl of a stop solution consisting of 3 μM EM-1404 as inhibitor (U.S. Pat. No. 6,541,463) in 50 mM HEPES pH7.5 (3 μM EM-1404→final concentration in 7.5 μl of assay volume is 1 μM). The fluorescence of the Coumberole was then measured at 520 nm (excitation at 380 nm) using a suitable measuring instrument (Pherastar from BMG Labtechnologies). The intensity of the fluorescence was used as a measure of the amount of Coumberole formed and thus of the enzyme activity of AKR1C3. The data were normalized (enzyme reaction without inhibitor=0% inhibition; all other assay components, but no enzyme=100% inhibition).

SMILES | IC50
C[C@@H]1CN(S(=O)(=O)c2ccccc2C#N)[C@@H](C)CN1C(=O)c1cnn[nH]1 (stereo in doubt) [Example 14, 2-{[(2S,5R)-2,5-dimethyl-4-(1H-1,2,3-triazol-5-ylcarbonyl)piperazin-1-yl]sulfonyl}benzonitrile] | 439 nM
C[C@@H]1CN(C(=O)c2cnn[nH]2)[C@@H](C)CN1S(=O)(=O)c1ccccc1 [Example 1, [(2S,5R)-2,5-dimethyl-4-(phenylsulfonyl)piperazin-1-yl](1H-1,2,3-triazol-5-yl)methanone] | 2 nM
C[C@@H]1CN(C(=O)c2cnn[nH]2)[C@@H](C)CN1S(=O)(=O)c1cc(F)cc(F)c1 [Example 3, {(2S,5R)-4-[(3,5-difluorophenyl)sulfonyl]-2,5-dimethylpiperazin-1-yl}(1H-1,2,3-triazol-5-yl)methanone] | 1 nM
C[C@@H]1CN(C(=O)c2cnn[nH]2)[C@@H](C)CN1S(=O)(=O)c1cc(Cl)ccc1Cl [Example 4, {(2S,5R)-4-[(2,5-dichlorophenyl)sulfonyl]-2,5-dimethylpiperazin-1-yl}(1H-1,2,3-triazol-5-yl)methanone] | 2 nM
C[C@@H]1CN(C(=O)c2cnn[nH]2)[C@@H](C)CN1S(=O)(=O)c1ccccc1F [Example 5, {(2S,5R)-4-[(2-fluorophenyl)sulfonyl]-2,5-dimethylpiperazin-1-yl}(1H-1,2,3-triazol-5-yl)methanone] | 2 nM
C[C@@H]1CN(C(=O)c2cnn[nH]2)[C@@H](C)CN1S(=O)(=O)c1ccccc1C(F)(F)F [Example 6, [(2S,5R)-2,5-dimethyl-4-{[2-(trifluoromethyl)phenyl]sulfonyl}piperazin-1-yl](1H-1,2,3-triazol-5-yl)methanone] | 2 nM
C[C@@H]1CN(C(=O)c2cnn[nH]2)[C@@H](C)CN1S(=O)(=O)c1cccc(F)c1 [Example 7, sodium 5-({(2S,5R)-4-[(3-fluorophenyl)sulfonyl]-2,5-dimethylpiperazin-1-yl}carbonyl)-1,2,3-triazol-1-ide] | 1 nM
C[C@@H]1CN(C(=O)c2c[nH]nn2)[C@@H](C)CN1S(=O)(=O)c1cccc(S(F)(F)(F)(F)F)c1 [Example 8, [(2S,5R)-2,5-dimethyl-4-{[3-(pentafluoro-λ^6-sulfanyl)phenyl]sulfonyl}piperazin-1-yl](1H-1,2,3-triazol-4-yl)methanone] | 1 nM
C[C@@H]1CN(C(=O)c2c[nH]nn2)[C@@H](C)CN1S(=O)(=O)c1cccc(Cl)c1F [Example 9, {(2S,5R)-4-[(3-chloro-2-fluorophenyl)sulfonyl]-2,5-dimethylpiperazin-1-yl}(1H-1,2,3-triazol-4-yl)methanone] | 1 nM
C[C@@H]1CN(C(=O)c2c[nH]nn2)[C@@H](C)CN1S(=O)(=O)c1ccc(Cl)s1 [Example 10, {(2S,5R)-4-[(5-chlorothiophen-2-yl)sulfonyl]-2,5-dimethylpiperazin-1-yl}(1H-1,2,3-triazol-4-yl)methanone] | 3 nM
C[C@@H]1CN(C(=O)c2c[nH]nn2)[C@@H](C)CN1S(=O)(=O)c1cccnc1 [Example 11, [(2S,5R)-2,5-dimethyl-4-(pyridin-3-ylsulfonyl)piperazin-1-yl](1H-1,2,3-triazol-5-yl)methanone] | 77 nM
C[C@@H]1CN(C(=O)c2c[nH]nn2)[C@@H](C)CN1S(=O)(=O)c1cccc(C(F)(F)F)c1 [Example 12, [(2S,5R)-2,5-dimethyl-4-{[3-(trifluoromethyl)phenyl]sulfonyl}piperazin-1-yl](1H-1,2,3-triazol-4-yl)methanone] | 1 nM
C[C@@H]1CN(C(=O)c2c[nH]nn2)[C@@H](C)CN1S(=O)(=O)c1cc(F)ccc1F [Example 13, {(2S,5R)-4-[(2,5-difluorophenyl)sulfonyl]-2,5-dimethylpiperazin-1-yl}(1H-1,2,3-triazol-4-yl)methanone] | 2 nM
C[C@@H]1CN(C(=O)c2cnn[nH]2)[C@@H](C)CN1S(=O)(=O)c1ccc(C#N)cc1 [Example 15, 4-{[(2R,5S)-2,5-dimethyl-4-(1H-1,2,3-triazol-5-ylcarbonyl)piperazin-1-yl]sulfonyl}benzonitrile] | 55 nM
COc1ccccc1S(=O)(=O)N1C[C@H](C)N(C(=O)c2cnn[nH]2)C[C@H]1C [Example 16, {(2S,5R)-4-[(2-methoxyphenyl)sulfonyl]-2,5-dimethylpiperazin-1-yl}(1H-1,2,3-triazol-5-yl)methanone] | 4 nM
C[C@@H]1CN(C(=O)c2cnn[nH]2)[C@@H](C)CN1S(=O)(=O)c1ccc(O)cc1 [Example 17, {(2S,5R)-4-[(4-hydroxyphenyl)sulfonyl]-2,5-dimethylpiperazin-1-yl}(1H-1,2,3-triazol-5-yl)methanone] | 12 nM
C[C@@H]1CN(S(=O)(=O)c2ccccc2)C[C@H](C)N1C(=O)c1c[nH]nn1 [Example 18, [(2R,6S)-2,6-dimethyl-4-(phenylsulfonyl)piperazin-1-yl](1H-1,2,3-triazol-4-yl)methanone] | 11 nM

Further lines, results first:

IC50 | SMILES
17 nM | CC1(C)CN(C(=O)c2c[nH]nn2)CCN1S(=O)(=O)c1ccccc1 [Example 19, [3,3-dimethyl-4-(phenylsulfonyl)piperazin-1-yl](1H-1,2,3-triazol-4-yl)methanone]
11 nM | CC1(C)CN(C(=O)c2c[nH]nn2)CCN1S(=O)(=O)c1cccc(F)c1 [Example 20, {4-[(3-fluorophenyl)sulfonyl]-3,3-dimethylpiperazin-1-yl}(1H-1,2,3-triazol-4-yl)methanone]
3 nM | CC1(C)CN(C(=O)c2c[nH]nn2)CCN1S(=O)(=O)c1cccc(Cl)c1 [Example 21, {4-[(3-chlorophenyl)sulfonyl]-3,3-dimethylpiperazin-1-yl}(1H-1,2,3-triazol-4-yl)methanone]
2 nM | Cc1cc(C)cc(S(=O)(=O)N2CCN(C(=O)c3c[nH]nn3)CC2(C)C)c1 [Example 22, {4-[(3,5-dimethylphenyl)sulfonyl]-3,3-dimethylpiperazin-1-yl}(1H-1,2,3-triazol-4-yl)methanone]
2 nM | CC1(C)CN(C(=O)c2c[nH]nn2)CCN1S(=O)(=O)c1cccc(Br)c1 [Example 23, {4-[(3-bromophenyl)sulfonyl]-3,3-dimethylpiperazin-1-yl}(1H-1,2,3-triazol-4-yl)methanone]
8 nM | CC1(C)CN(C(=O)c2c[nH]nn2)CCN1S(=O)(=O)c1cccc(Cl)c1F [Example 24, {4-[(3-chloro-2-fluorophenyl)sulfonyl]-3,3-dimethylpiperazin-1-yl}(1H-1,2,3-triazol-4-yl)methanone]
7 nM | CC1(C)CN(C(=O)c2c[nH]nn2)CCN1S(=O)(=O)c1cc(Cl)ccc1Cl [Example 25, {4-[(2,5-dichlorophenyl)sulfonyl]-3,3-dimethylpiperazin-1-yl}(1H-1,2,3-triazol-4-yl)methanone]
4 nM | CC1(C)CN(C(=O)c2c[nH]nn2)CCN1S(=O)(=O)c1cc(Cl)cc(Cl)c1 [Example 26, {4-[(3,5-dichlorophenyl)sulfonyl]-3,3-dimethylpiperazin-1-yl}(1H-1,2,3-triazol-4-yl)methanone]
7 nM | CC1(C)CN(C(=O)c2c[nH]nn2)CCN1S(=O)(=O)c1ccccc1C(F)(F)F [Example 27, (3,3-dimethyl-4-{[2-(trifluoromethyl)phenyl]sulfonyl}piperazin-1-yl)(1H-1,2,3-triazol-4-yl)methanone]
3 nM | CC1(C)CN(C(=O)c2c[nH]nn2)CCN1S(=O)(=O)c1cccc(C(F)(F)F)c1 [Example 28, (3,3-dimethyl-4-{[3-(trifluoromethyl)phenyl]sulfonyl}piperazin-1-yl)(1H-1,2,3-triazol-4-yl)methanone]
